Data published in US6489535B1, “Non-mammalian transgenic animal having an adult onset neurodegenerative phenotype” (priority 1999, dated 2002).
Read-outs that look alike come from different tables or passages of the source.

Tests used:
AON mutant fly strain = test: whole plant or invertebrate; format: in vivo, Drosophila melanogaster; settings: for Phenotype AON + E: larva fed .5 μg/ml estrogen, >90% of 100 flies; for Phenotype AON + E: key: None = normal adult fly; WC = loss of wing control; WP = wings paralyzed; C = loss of coordination and locomotion capabilities; L = flies stop uptaking liquid; D = death
Method: (§1) Each compound was prepared over a range of dilutions and each was tested for the activity of alleviating the adult onset neurodegeneration condition. The compound dilutions were uptaken by either the larva or adult flies. The compound dilutions were mixed into the nutrient media and this served as the food/water source for either larva or flies. The adult onset neurodegeneration symptoms and their timelines were monitored for each compound dilution and compared to the no treatment control. Compounds examined here included: beta-estradiol, zinc chloride, sodium chloride, water, chocolate, and phosphate buffered saline.
In addition, compounds were also tested in the AON mutant fly strain that were known not to influence human AON conditions. Finally, a complex mixture with unknown influence on human AON conditions was tested in the AON mutant fly strain.

wild-type adult flies = test: Wild-type flies fed estrogen, phenotype by adult age; format: in vivo, Drosophila melanogaster; settings: larva fed .5 μg/ml estrogen; note: key: None = normal adult fly; WC = loss of wing control; WP = wings paralyzed; C = loss of coordination and locomotion capabilities; L = flies stop uptaking liquid; D = death
Method: as §1

[1] = Drosophila melanogaster, po, read-out: S increased (S = AON symptom free adult time span)

Cc1c(C)c2c(c(C)c1O)CC[C@@](C)(CCC[C@H](C)CCC[C@H](C)CCCC(C)C)O2 [Alpha Tocopherol]
L.D. (AON mutant fly strain; dose 1 mg/ml): L.D. 30,
D increased (D = life span) (AON mutant fly strain; dose 1 mg/ml, escapers): increased 33%
S increased (S = AON symptom free adult time span) (AON mutant fly strain; dose 1 mg/ml, escapers): 200%, D

CCN(CC)C(=O)N[C@H]1C=C2c3cccc4[nH]cc(c34)C[C@H]2N(C)C1 [Lisuride]
change in vivo at 2 µg/mL (AON mutant fly strain; Drosophila melanogaster, po, dose .002 mg/ml, read-out: S increased (S = AON symptom free adult time span)): 100%
L.D. (AON mutant fly strain; dose 2 mg/ml): L.D. 100
L.D. (AON mutant fly strain; dose .002 mg/ml): L.D. 60, S
L.D. (AON mutant fly strain; dose .02 mg/ml, (no AON flies)): L.D. 99 (no
L.D. (AON mutant fly strain; dose .2 mg/ml): L.D. 100

beta-estradiol [Estrogen]
effect on the AON condition in the mutant fly strain (AON mutant fly strain; administered orally): alleviates the AON condition
Phenotype AON + E (AON mutant fly strain; age of adult 0-1 hours): None
Phenotype AON + E (AON mutant fly strain; age of adult 1-3 hours): None
D increased (D = life span) (AON mutant fly strain; dose 5 mg/ml): increased 68%
S increased (S = AON symptom free adult time span) (AON mutant fly strain; dose 5 mg/ml): 100%, D
S increased (S = AON symptom free adult time span) (AON mutant fly strain; dose .5 mg/ml): 200%
Phenotype Wt + E (wild-type adult flies; age of adult 0-1 hours): None
Phenotype Wt + E (wild-type adult flies; age of adult 1-3 hours): None
Phenotype Wt + E (wild-type adult flies; age of adult 3-24 hours): None
Phenotype Wt + E (wild-type adult flies; age of adult 24-36 hours): None
Phenotype Wt + E (wild-type adult flies; age of adult 36-72 hours): None
Phenotype Wt + E (wild-type adult flies; age of adult 72-144 hours): None
Phenotype Wt + E (wild-type adult flies; age of adult 144+ hours): None

[Cl-].[Na+] [sodium chloride]
effect on the AON phenotype in the mutant fly strain (AON mutant fly strain; oral, dose not stated): no effect

Nc1nc2ccc(OC(F)(F)F)cc2s1 [Riluzole]
change in vivo at 10 µg/mL (AON mutant fly strain; [1]): 100%
D increased (D = life span) (AON mutant fly strain; dose .01 mg/ml): increased 17%

CCCn1cnc2c1c(=O)n(CCCCC(C)=O)c(=O)n2C [Propentofylline]
change in vivo at 5000 µg/mL (AON mutant fly strain; [1]): 200%
L.D. (AON mutant fly strain; dose 5 mg/ml): L.D. 80,
D increased (D = life span) (AON mutant fly strain; dose 5 mg/ml, escapers): 17%

CC(C)C[C@H]1C(=O)N2CCC[C@H]2[C@]2(O)O[C@](NC(=O)[C@@H]3C=C4c5cccc6[nH]c(Br)c(c56)C[C@H]4N(C)C3)(C(C)C)C(=O)N12 [Bromocriptine]
change in vivo at 10 µg/mL (AON mutant fly strain; Drosophila melanogaster, po, dose .01 mg/ml, read-out: S increased (S = AON symptom free adult time span)): 33%
L.D. (AON mutant fly strain; dose .1 mg/ml): L.D. 100

C#CCN(C)[C@H](C)Cc1ccccc1 [Selegiline]
change in vivo at 0.2 µg/mL (AON mutant fly strain; Drosophila melanogaster, po, dose .0002 mg/ml, read-out: S increased (S = AON symptom free adult time span)): 200%
change in vivo at 20 µg/mL (AON mutant fly strain; Drosophila melanogaster, po, dose .02 mg/ml, read-out: S increased (S = AON symptom free adult time span)): 100%
L.D. (AON mutant fly strain; dose 2 mg/ml): L.D. 100
L.D., AON class only (AON mutant fly strain; dose .2 mg/ml, AON class only): only, L.D. 95,
result (effect on AON phenotype) (AON mutant fly strain; dose .2 mg/ml, escapers): No Effect

[Cl-].[Cl-].[Zn+2] [Zinc, zinc chloride]
effect on the AON condition (AON mutant fly strain; higher concentrations, 50-100 μgrams/ml of nutrient media, oral): exacerbated the AON condition
effect on the mutant AON fly strain (AON mutant fly strain; low concentrations, 10-20 μgrams/ml of nutrient media, oral): no effect was observed

CN1C(=O)CN=C(c2ccccc2)c2cc(Cl)ccc21 [Diazepam]
L.D. (AON mutant fly strain; AON mutant fly strain, Drosophila melanogaster, in vivo): L.D. 100
result (effect on AON phenotype) (AON mutant fly strain; in vivo): No Effect

COc1ccc2[nH]cc(CCNC(C)=O)c2c1 [Melatonin]
L.D. (AON mutant fly strain; dose 5 mg/ml): L.D. 100
result (effect on AON phenotype) (AON mutant fly strain; dose .0005 mg/ml): No Effect
result (effect on AON phenotype) (AON mutant fly strain; dose .005 mg/ml): No Effect
result (effect on AON phenotype) (AON mutant fly strain; dose .05 mg/ml): No Effect
result (effect on AON phenotype) (AON mutant fly strain; dose .5 mg/ml): No Effect

Nc1c2c(nc3ccccc13)CCCC2 [Tacrine]
change in vivo at 0.5 µg/mL (AON mutant fly strain; [1]): 100%

N[C@@H](Cc1ccc(O)c(O)c1)C(=O)O [Levodopa]
change in vivo at 0.15 µg/mL (AON mutant fly strain; [1]): 100%

OC(CCN1CCCCC1)(c1ccccc1)C1CCCCC1 (centres unmarked) [Trihexyphenidyl]
change in vivo at 100 µg/mL (AON mutant fly strain; [1]): ~25%
change in vivo at 1000 µg/mL (AON mutant fly strain; [1]): 33%

C[C@]12N[C@H](Cc3ccccc31)c1ccccc12 [Dizocilipine]
S increased (S = AON symptom free adult time span) (AON mutant fly strain; dose .00006 mg/ml): 17%
AON symptoms delayed (AON mutant fly strain; dose .0006 mg/ml): delayed 2 days
AON growth (AON mutant fly strain; dose .06 mg/ml): delayed
result (effect on AON phenotype) (AON mutant fly strain; dose .06 mg/ml): No
L.D. (AON mutant fly strain; in vivo): L.D. 100

CN1[C@@H]2CC[C@H]1C[C@@H](OC(c1ccccc1)c1ccccc1)C2 [Benztropine]
change in vivo at 0.023 µg/mL (AON mutant fly strain; [1]): 400%
change in vivo at 0.23 µg/mL (AON mutant fly strain; [1]): 300%
change in vivo at 23 µg/mL (AON mutant fly strain; [1]): 500%
D increased (D = life span) (AON mutant fly strain; dose .000023 mg/ml): 33%
D increased (D = life span) (AON mutant fly strain; dose .00023 mg/ml): 17%
L.D., AON class (AON mutant fly strain; dose .023 mg/ml, AON class): L.D. 95,
L.D. (AON mutant fly strain; dose .23 mg/ml): L.D. 100

CCCN1C[C@H](CSC)C[C@@H]2c3cccc4[nH]cc(c34)C[C@H]21 [pergolide]
effect in the AON fly drug screening (AON mutant fly strain; dose not stated): did not show any effect

NC(=O)c1cccnc1 [Nicotinamide]
change in vivo at 5000 µg/mL (AON mutant fly strain; [1]): 100%
L.D. (AON mutant fly strain; dose 5 mg/ml): L.D. 90, S
